# Reference: patent US12297194B2, “N2-phenylpyrimidine-2,4-diamine compounds, and preparation methods and methods of use thereof” (BRIDGE BIOTHERAPEUTICS, INC., priority 2021, dated 2025)
# How the values were obtained:
# Format in all cases: cell-based, murine
# [1] = target: Ba/F3 EGFR Del19/T790M mutants (Homo sapiens, UniProt P00533, T790M, cells depend on it, form not given); assay: CellTiter-Glo cell viability, Ba/F3 EGFR Del19/T790M cells; conditions: 72 hours, read-out: Ba/F3 EGFR mutant cell (IC50, nM) D/T
# Method in brief: (§1)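 Steps: seed 2500 Ba/F3 cells per well; after 24 h add compound, 0, 0.3, 0.9, 2.7, 8.2, 24.7, 74.1, 222.2, 666.7, 2000 nM; incubate 72 h; equilibrate 30 min at ambient temperature; add CellTiter-Glo, shake 10 min; read luminescence; derive IC50.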
# [2] = target: Ba/F3 EGFR L858R/C797S mutants (Homo sapiens, UniProt P00533, C797S/L858R, cells depend on it); assay: CellTiter-Glo cell viability, Ba/F3 EGFR L858R/C797S cells; conditions: 72 hours, read-out: Ba/F3 EGFR mutant cell (IC50, nM) L/C
# Chain of Ba/F3 EGFR L858R/C797S mutants (P00533 whole entry C797S/L858R): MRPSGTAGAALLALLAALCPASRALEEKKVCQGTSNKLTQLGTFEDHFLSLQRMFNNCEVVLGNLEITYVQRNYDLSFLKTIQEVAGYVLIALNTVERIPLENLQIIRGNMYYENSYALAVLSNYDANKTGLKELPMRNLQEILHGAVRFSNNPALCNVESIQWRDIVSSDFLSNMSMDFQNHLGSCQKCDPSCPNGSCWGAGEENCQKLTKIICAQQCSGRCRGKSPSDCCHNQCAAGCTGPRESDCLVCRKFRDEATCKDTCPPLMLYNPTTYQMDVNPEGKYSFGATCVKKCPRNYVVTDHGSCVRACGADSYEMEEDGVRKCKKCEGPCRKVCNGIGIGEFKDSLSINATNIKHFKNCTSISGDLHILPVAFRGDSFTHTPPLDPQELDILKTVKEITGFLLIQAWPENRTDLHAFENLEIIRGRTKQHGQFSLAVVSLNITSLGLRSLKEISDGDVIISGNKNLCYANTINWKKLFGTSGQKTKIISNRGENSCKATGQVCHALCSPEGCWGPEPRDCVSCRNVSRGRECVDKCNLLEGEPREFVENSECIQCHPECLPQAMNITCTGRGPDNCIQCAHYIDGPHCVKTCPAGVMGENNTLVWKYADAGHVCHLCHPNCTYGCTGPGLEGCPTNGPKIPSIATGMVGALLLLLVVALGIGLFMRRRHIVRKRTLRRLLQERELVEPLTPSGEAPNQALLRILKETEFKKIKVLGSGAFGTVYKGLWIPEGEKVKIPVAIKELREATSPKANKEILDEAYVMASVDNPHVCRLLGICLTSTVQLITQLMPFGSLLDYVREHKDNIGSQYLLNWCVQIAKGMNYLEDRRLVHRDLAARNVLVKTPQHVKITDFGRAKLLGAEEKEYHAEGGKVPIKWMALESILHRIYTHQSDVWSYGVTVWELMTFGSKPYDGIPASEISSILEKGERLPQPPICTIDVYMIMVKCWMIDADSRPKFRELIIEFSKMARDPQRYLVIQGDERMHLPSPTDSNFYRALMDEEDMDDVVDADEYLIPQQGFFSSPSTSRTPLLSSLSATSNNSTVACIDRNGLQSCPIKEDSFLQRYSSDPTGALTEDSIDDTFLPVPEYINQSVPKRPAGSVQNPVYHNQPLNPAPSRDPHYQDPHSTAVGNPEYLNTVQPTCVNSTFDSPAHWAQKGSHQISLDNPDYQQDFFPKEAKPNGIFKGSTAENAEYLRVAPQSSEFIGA
# Method in brief: as §1
# [3] = target: Ba/F3 EGFR Del19/T790M/C797S mutants (Homo sapiens, UniProt P00533, T790M/C797S, cells depend on it, form not given); assay: CellTiter-Glo cell viability, Ba/F3 EGFR Del19/T790M/C797S cells; conditions: 72 hours, read-out: Ba/F3 EGFR mutant cell (IC50, nM) D/T/C
# Method in brief: as §1
# [4] = target: Ba/F3 EGFR L858R/T790M/C797S mutants (Homo sapiens, UniProt P00533, T790M/C797S/L858R, cells depend on it); assay: CellTiter-Glo cell viability, Ba/F3 EGFR L858R/T790M/C797S cells; conditions: 72 hours, read-out: Ba/F3 EGFR mutant cell (IC50, nM) L/T/C
# Chain of Ba/F3 EGFR L858R/T790M/C797S mutants (P00533 whole entry T790M/C797S/L858R): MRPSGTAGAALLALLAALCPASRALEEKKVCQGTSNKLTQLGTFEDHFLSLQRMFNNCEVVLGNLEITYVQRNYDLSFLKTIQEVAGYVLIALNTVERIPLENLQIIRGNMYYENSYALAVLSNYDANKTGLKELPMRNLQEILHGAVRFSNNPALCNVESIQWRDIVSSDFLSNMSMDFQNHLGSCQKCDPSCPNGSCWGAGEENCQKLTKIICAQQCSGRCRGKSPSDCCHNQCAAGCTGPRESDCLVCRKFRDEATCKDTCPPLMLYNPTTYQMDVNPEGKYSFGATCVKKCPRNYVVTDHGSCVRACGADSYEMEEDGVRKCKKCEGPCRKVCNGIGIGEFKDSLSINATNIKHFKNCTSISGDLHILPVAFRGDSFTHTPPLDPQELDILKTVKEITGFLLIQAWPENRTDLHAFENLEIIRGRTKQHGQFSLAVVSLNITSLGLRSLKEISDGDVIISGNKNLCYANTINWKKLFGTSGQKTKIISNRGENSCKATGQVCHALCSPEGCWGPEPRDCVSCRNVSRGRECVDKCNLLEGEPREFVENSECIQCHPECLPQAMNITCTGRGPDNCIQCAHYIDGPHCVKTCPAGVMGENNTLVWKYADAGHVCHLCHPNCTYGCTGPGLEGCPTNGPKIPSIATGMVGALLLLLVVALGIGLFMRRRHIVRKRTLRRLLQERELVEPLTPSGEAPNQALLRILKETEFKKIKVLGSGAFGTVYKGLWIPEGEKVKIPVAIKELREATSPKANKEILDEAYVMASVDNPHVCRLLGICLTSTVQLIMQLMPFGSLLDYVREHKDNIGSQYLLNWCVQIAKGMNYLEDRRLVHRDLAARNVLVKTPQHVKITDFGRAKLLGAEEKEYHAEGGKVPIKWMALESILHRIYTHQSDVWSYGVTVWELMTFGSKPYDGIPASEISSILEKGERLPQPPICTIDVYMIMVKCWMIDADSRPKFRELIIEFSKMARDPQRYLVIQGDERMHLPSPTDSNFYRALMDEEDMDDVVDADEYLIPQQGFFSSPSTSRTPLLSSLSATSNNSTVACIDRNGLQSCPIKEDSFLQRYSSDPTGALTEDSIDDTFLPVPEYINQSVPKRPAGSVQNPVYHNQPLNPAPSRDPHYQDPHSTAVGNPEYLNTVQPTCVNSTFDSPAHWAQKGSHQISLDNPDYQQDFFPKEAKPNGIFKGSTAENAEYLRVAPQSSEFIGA
# Method in brief: as §1
# [5] = target: Ba/F3 EGFR Wild-type (Homo sapiens, UniProt P00533); assay: CellTiter-Glo cell viability, Ba/F3 EGFR wild-type cells; conditions: 72 hours, read-out: Ba/F3 EGFR mutant cell (IC50, nM) WT
# Chain of Ba/F3 EGFR Wild-type (P00533 whole entry, change not shown): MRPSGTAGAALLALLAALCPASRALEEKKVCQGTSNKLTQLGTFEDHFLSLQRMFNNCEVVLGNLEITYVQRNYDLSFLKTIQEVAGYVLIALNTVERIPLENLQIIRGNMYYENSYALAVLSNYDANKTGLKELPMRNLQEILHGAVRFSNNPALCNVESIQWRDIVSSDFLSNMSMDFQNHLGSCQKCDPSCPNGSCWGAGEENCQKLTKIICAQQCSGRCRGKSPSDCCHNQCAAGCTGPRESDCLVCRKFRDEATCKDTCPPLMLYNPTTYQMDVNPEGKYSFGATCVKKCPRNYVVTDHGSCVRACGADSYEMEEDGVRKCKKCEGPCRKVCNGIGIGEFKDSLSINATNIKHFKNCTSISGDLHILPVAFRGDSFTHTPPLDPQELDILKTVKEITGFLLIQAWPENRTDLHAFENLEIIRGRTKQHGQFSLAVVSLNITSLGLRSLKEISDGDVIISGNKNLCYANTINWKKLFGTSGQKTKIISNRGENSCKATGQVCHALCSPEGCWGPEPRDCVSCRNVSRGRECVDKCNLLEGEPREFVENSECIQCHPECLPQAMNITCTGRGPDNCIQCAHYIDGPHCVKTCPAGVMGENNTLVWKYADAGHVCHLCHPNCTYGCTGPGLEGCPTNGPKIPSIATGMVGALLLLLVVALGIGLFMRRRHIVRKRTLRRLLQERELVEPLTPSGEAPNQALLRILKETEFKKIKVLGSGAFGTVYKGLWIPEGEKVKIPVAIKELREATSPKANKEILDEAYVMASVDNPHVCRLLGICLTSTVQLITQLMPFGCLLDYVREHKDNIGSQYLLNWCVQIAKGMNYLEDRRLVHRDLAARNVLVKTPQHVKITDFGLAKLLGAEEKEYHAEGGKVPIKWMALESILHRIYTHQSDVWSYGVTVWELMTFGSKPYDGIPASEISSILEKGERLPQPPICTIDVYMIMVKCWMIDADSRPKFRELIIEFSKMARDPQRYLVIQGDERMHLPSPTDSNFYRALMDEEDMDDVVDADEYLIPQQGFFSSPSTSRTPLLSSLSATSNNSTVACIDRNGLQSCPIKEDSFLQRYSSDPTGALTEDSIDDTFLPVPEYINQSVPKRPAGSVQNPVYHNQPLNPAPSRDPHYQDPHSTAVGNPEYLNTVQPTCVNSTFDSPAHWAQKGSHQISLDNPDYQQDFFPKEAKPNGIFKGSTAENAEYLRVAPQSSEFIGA
# Method in brief: as §1
# [6] = target: Ba/F3 EGFR Del19/C797S mutants (Homo sapiens, UniProt P00533, C797S, cells depend on it, form not given); assay: CellTiter-Glo cell viability, Ba/F3 EGFR Del19/C797S cells; conditions: 72 hours, read-out: Ba/F3 EGFR mutant cell (IC50, nM) D/C
# Chain of Ba/F3 EGFR Del19/C797S mutants (P00533 with tags, fused parts or gaps DEL746-750/C797S, form open): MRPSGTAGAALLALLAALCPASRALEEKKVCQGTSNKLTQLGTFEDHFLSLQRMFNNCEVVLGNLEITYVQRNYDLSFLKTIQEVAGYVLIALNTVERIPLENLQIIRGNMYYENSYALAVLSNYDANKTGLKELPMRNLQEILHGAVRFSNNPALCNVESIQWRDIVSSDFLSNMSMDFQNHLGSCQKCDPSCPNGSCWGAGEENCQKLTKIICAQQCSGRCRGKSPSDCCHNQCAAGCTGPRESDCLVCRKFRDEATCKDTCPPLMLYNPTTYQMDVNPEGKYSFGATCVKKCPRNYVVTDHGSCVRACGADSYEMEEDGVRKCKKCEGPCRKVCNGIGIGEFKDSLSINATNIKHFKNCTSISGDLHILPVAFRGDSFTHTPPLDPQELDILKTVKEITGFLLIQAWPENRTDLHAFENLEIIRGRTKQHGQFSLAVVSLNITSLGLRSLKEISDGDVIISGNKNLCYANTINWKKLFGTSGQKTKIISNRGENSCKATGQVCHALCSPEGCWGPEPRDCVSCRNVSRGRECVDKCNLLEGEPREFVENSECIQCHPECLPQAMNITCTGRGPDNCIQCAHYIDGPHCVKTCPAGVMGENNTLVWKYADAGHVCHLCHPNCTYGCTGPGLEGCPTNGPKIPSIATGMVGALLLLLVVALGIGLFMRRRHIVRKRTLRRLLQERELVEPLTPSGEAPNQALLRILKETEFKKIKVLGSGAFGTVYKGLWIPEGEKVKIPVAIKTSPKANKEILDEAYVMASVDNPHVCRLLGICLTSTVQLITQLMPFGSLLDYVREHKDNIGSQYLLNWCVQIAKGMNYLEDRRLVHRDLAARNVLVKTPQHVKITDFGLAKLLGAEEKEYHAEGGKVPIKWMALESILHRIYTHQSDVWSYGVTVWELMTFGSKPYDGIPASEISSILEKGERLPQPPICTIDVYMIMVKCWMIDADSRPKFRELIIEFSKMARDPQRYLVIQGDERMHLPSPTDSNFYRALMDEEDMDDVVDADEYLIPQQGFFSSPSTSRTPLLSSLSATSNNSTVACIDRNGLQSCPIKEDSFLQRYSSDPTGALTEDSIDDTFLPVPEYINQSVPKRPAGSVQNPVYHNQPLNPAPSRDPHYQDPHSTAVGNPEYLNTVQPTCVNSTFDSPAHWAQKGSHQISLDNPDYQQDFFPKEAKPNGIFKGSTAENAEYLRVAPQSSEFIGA
# Method in brief: as §1
smiles,measurement,setting,value
"COc1cc(N2CCC(N(C)C)CC2)c(C)cc1Nc1ncc(Br)c(Nc2cccc(OC)c2N(C)S(C)(=O)=O)n1 [Example C5, N-(2-((5-bromo-2-((4-(4-(dimethylamino)piperidin-1-yl)-2-methoxy-5-methylphenyl)amino)pyrimidin-4-yl)amino)-6-methoxyphenyl)-N-methylmethanesulfonamide]",GI50,[1],17 nM
same,GI50,[2],91 nM
same,GI50,[3],34 nM
same,GI50,[4],94 nM
same,GI50,[5],545 nM
same,GI50,[6],19 nM
"COc1cc(N2CCNCC2)ccc1Nc1ncc(Cl)c(Nc2ccc3nccnc3c2NS(C)(=O)=O)n1 [Example B16, N-(6-((5-chloro-2-((2-methoxy-4-(piperazin-1-yl)phenyl)amino)pyrimidin-4-yl)amino)quinoxalin-5-yl)methanesulfonamide]",GI50,[1],402 nM
same,GI50,[2],778 nM
same,GI50,[3],741 nM
same,GI50,[4],823 nM
same,GI50,[5],1890 nM
same,GI50,[6],361 nM
"COc1cc(C2CCNCC2)c(F)cc1Nc1ncc(Cl)c(Nc2ccc3nccnc3c2NS(C)(=O)=O)n1 [Example B21, N-(6-((5-chloro-2-((5-fluoro-2-methoxy-4-(piperidin-4-yl)phenyl)amino)pyrimidin-4-yl)amino)quinoxalin-5-yl)methanesulfonamide]",GI50,[1],469 nM
same,GI50,[2],500 nM
same,GI50,[3],448 nM
same,GI50,[4],693 nM
same,GI50,[5],1730 nM
same,GI50,[6],342 nM
"COc1ccc(Nc2nc(Nc3cc(C)c(N4CCC(N5CCN(C)CC5)CC4)cc3OC)ncc2Cl)c(NS(C)(=O)=O)c1 [Example C26, N-(2-((5-chloro-2-((2-methoxy-5-methyl-4-(4-(4-methylpiperazin-1-yl)piperidin-1-yl)phenyl)amino)pyrimidin-4-yl)amino)-5-methoxyphenyl)methanesulfonamide]",GI50,[1],8 nM
same,GI50,[2],35 nM
same,GI50,[3],5 nM
same,GI50,[4],54 nM
same,GI50,[5],421 nM
same,GI50,[6],7 nM
"COc1cc(N2CCN([C@@H]3CCN(C)C[C@@H]3F)CC2)ccc1Nc1ncc(Cl)c(Nc2ccc3nccnc3c2NS(C)(=O)=O)n1 [Example A36, N-(6-((5-chloro-2-((4-(4-((3S,4R)-3-fluoro-1-methylpiperidin-4-yl)piperazin-1-yl)-2-methoxyphenyl)amino)pyrimidin-4-yl)amino)quinoxalin-5-yl)methane sulfonamide]",GI50,[1],73 nM
same,GI50,[2],267 nM
same,GI50,[3],241 nM
same,GI50,[4],485 nM
same,GI50,[5],657 nM
same,GI50,[6],111 nM
"COc1cc(N2CCC(N3CCN(C)CC3)CC2)c(C)cc1Nc1ncc(Br)c(Nc2cccc(OC)c2N(C)S(C)(=O)=O)n1 [Example C21, N-(2-((5-bromo-2-((2-methoxy-5-methyl-4-(4-(4-methylpiperazin-1-yl)piperidin-1-yl)phenyl)amino)pyrimidin-4-yl)amino)-6-methoxyphenyl)-N-methylmethanesulfonamide]",GI50,[1],18 nM
same,GI50,[2],61 nM
same,GI50,[3],13 nM
same,GI50,[4],49 nM
same,GI50,[5],660 nM
same,GI50,[6],10 nM
COc1cc(C2=CCNCC2)c(C)cc1Nc1ncc(Br)c(Nc2ccc3nccnc3c2NS(C)(=O)=O)n1 [Example D2],GI50,[1],342 nM
same,GI50,[2],771 nM
same,GI50,[3],710 nM
same,GI50,[4],330 nM
same,GI50,[5],1430 nM
same,GI50,[6],462 nM
"CCc1cc(Nc2ncc(Cl)c(Nc3ccc(OC)c(OC)c3NS(C)(=O)=O)n2)c(OC)cc1N1CCC(N2CCOCC2)CC1 [Example C18, N-(6-((5-chloro-2-((5-ethyl-2-methoxy-4-(4-morpholinopiperidin-1-yl)phenyl)amino)pyrimidin-4-yl)amino)-2,3-dimethoxyphenyl)methanesulfonamide]",GI50,[1],39 nM
same,GI50,[2],215 nM
same,GI50,[3],54 nM
same,GI50,[4],194 nM
same,GI50,[5],835 nM
same,GI50,[6],55 nM
"COc1cc(C2CCNCC2)ccc1Nc1ncc(C2CC2)c(Nc2ccc3nccnc3c2NS(C)(=O)=O)n1 [Example B20, N-(6-((5-cyclopropyl-2-((2-methoxy-4-(piperidin-4-yl)phenyl)amino)pyrimidin-4-yl)amino)quinoxalin-5-yl)methanesulfonamide]",GI50,[1],1810 nM
same,GI50,[2],1140 nM
same,GI50,[3],758 nM
same,GI50,[4],1850 nM
same,GI50,[5],> 2000 nM
same,GI50,[6],697 nM
"CCc1cc(Nc2ncc(Br)c(Nc3cccc(OC)c3N(C)S(C)(=O)=O)n2)c(OC)cc1N1CCC(N2CCN(C)CC2)CC1 [Example C29, N-(2-((5-bromo-2-((5-ethyl-2-methoxy-4-(4-(4-methylpiperazin-1-yl)piperidin-1-yl)phenyl)amino)pyrimidin-4-yl)amino)-6-methoxyphenyl)-N-methylmethane sulfonamide]",GI50,[1],7 nM
same,GI50,[2],76 nM
same,GI50,[3],5 nM
same,GI50,[4],21 nM
same,GI50,[5],669 nM
same,GI50,[6],5 nM
"CCc1cc(Nc2ncc(Br)c(Nc3ccc4nccnc4c3N(C)S(C)(=O)=O)n2)c(OC)cc1N1CCC(N2CCOCC2)CC1 [Example A39, N-(6-((5-bromo-2-((5-ethyl-2-methoxy-4-(4-morpholinopiperidin-1-yl)phenyl)amino)pyrimidin-4-yl)amino)quinoxalin-5-yl)-N-methylmethanesulfonamide]",GI50,[1],4 nM
same,GI50,[2],61 nM
same,GI50,[3],8 nM
same,GI50,[4],35 nM
same,GI50,[5],779 nM
same,GI50,[6],8 nM
"CCc1cc(Nc2ncc(Br)c(Nc3cccc(OC)c3NS(C)(=O)=O)n2)c(OC)cc1N1CCC(N2CCN(C)CC2)CC1 [Example C22, N-(2-((5-bromo-2-((5-ethyl-2-methoxy-4-(4-(4-methylpiperazin-1-yl)piperidin-1-yl)phenyl)amino)pyrimidin-4-yl)amino)-6-methoxyphenyl)methanesulfonamide]",GI50,[1],4 nM
same,GI50,[2],36 nM
same,GI50,[3],2 nM
same,GI50,[4],25 nM
same,GI50,[5],738 nM
same,GI50,[6],5 nM
"COc1ccc(Nc2nc(Nc3cc(C)c(N4CCC(N5CCN(C)CC5)CC4)cc3OC)ncc2Br)c(NS(C)(=O)=O)c1 [Example C2, N-(2-((5-bromo-2-((2-methoxy-5-methyl-4-(4-(4-methylpiperazin-1-yl)piperidin-1-yl)phenyl)amino)pyrimidin-4-yl)amino)-5-methoxyphenyl)methanesulfonamide]",GI50,[1],3 nM
same,GI50,[2],32 nM
same,GI50,[3],9 nM
same,GI50,[4],18 nM
same,GI50,[5],385 nM
same,GI50,[6],13 nM
CN[C@@H]1CN(c2ccc(Nc3ncc(Cl)c(Nc4ccc5nccnc5c4NS(C)(=O)=O)n3)c(OC)c2)C[C@H]1F [Example D5],GI50,[1],466 nM
same,GI50,[2],680 nM
same,GI50,[3],699 nM
same,GI50,[4],1320 nM
same,GI50,[5],1720 nM
same,GI50,[6],595 nM
"COc1cc(C2CCN(C(C)=O)CC2)ccc1Nc1ncc(Cl)c(Nc2ccc3nccnc3c2NS(C)(=O)=O)n1 [Example B8, N-(6-((2-((4-(1-acetylpiperidin-4-yl)-2-methoxyphenyl)amino)-5-chloropyrimidin-4-yl)amino)quinoxalin-5-yl)methanesulfonamide]",GI50,[1],424 nM
same,GI50,[2],554 nM
same,GI50,[3],292 nM
same,GI50,[4],861 nM
same,GI50,[5],729 nM
same,GI50,[6],320 nM
"CCc1cc(Nc2ncc(Br)c(Nc3ccc4nccnc4c3N(C)S(C)(=O)=O)n2)c(OC)cc1N1CC2(C1)CN(C(C)C)C2 [Example B29, N-(6-((5-bromo-2-((5-ethyl-4-(6-isopropyl-2,6-diazaspiro[3.3]heptan-2-yl)-2-methoxyphenyl)amino)pyrimidin-4-yl)amino)quinoxalin-5-yl)-N-methylmethanesulfonamide]",GI50,[1],9 nM
same,GI50,[2],27 nM
same,GI50,[3],2 nM
same,GI50,[4],68 nM
same,GI50,[5],317 nM
same,GI50,[6],14 nM
"CCCc1cc(Nc2ncc(Cl)c(Nc3cccc(OC)c3NS(C)(=O)=O)n2)c(OC)cc1N1CCC(N(C)C)CC1 [Example C19, N-(2-((5-chloro-2-((4-(4-(dimethylamino)piperidin-1-yl)-2-methoxy-5-propylphenyl)amino)pyrimidin-4-yl)amino)-6-methoxyphenyl)methanesulfonamide]",GI50,[1],9 nM
same,GI50,[2],30 nM
same,GI50,[3],7 nM
same,GI50,[4],54 nM
same,GI50,[5],668 nM
same,GI50,[6],12 nM
"COc1cc(N2CCC(N3CCN(C)CC3)CC2)c(C)cc1Nc1ncc(C)c(Nc2ccc3nccnc3c2NS(C)(=O)=O)n1 [Example A21, N-(6-((2-((2-methoxy-5-methyl-4-(4-(4-methylpiperazin-1-yl)piperidin-1-yl)phenyl)amino)-5-methylpyrimidin-4-yl)amino)quinoxalin-5-yl)methane sulfonamide]",GI50,[1],24 nM
same,GI50,[2],52 nM
same,GI50,[3],58 nM
same,GI50,[4],103 nM
same,GI50,[5],460 nM
same,GI50,[6],23 nM
